Experimental data from PubChem BioAssay AID2049 (The Scripps Research Institute Molecular Screening Center, 2009).
pEC50: −log10 of the molar value. The source made the active and inactive calls. The rule behind the calls is not given here.

Experiments:
[1] = target: Signal transducer and activator of transcription 1-alpha/beta (Homo sapiens) (UniProt P42224); assay: STAT3 activation with BCL3 mRNA and toxicity – cell-based, STAT1 reporter, BCL3 qPCR, cytotoxicity, late-stage follow-up (AID 2049); conditions: STAT1, Activation
Cytotoxicity = assay: as above; conditions: human cell reporter, cytotoxicity panel

Chain of Signal transducer and activator of transcription 1-alpha/beta (Homo sapiens) (P42224 whole entry, looked up): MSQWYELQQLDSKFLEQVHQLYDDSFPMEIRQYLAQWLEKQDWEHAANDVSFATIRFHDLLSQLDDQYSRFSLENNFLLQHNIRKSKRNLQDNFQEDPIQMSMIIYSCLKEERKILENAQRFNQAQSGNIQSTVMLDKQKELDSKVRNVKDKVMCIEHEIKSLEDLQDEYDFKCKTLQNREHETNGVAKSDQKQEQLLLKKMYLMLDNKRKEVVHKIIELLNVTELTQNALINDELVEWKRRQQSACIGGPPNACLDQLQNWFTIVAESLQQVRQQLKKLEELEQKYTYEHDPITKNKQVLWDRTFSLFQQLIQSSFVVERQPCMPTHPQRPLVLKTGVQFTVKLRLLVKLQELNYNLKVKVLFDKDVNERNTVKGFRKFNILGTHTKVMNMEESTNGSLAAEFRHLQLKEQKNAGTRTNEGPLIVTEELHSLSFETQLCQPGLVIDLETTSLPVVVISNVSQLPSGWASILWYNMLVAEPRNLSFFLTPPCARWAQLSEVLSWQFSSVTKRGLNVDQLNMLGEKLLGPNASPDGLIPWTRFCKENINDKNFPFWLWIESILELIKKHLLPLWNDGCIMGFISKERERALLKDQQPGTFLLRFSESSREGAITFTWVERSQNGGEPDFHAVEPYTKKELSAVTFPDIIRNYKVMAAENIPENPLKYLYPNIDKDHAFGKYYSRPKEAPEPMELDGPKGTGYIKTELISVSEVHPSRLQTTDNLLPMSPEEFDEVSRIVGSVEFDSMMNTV

| SMILES | EC50 [1] | CC50 (Cytotoxicity) [µM] | pEC50 [1] |
| --- | --- | --- | --- |
| COc1ccccc1NC(=O)c1cc(-c2ccccc2)on1 | inactive | – | – |
| COc1cc(NC(=O)c2cc(C(C)C)on2)c(OC)cc1Cl | > 55.7 µM (inactive) | – | – |
| COc1cc(NC(=O)c2cc(C3CC3)on2)c(OC)cc1Cl | > 55.7 µM (inactive) | > 55.7 | – |
| Nc1c(C(=O)Nc2ccccc2)noc1C(=O)c1ccccc1 | > 55.7 µM (inactive) | – | – |
| CCCc1cc(C(=O)Nc2cc(OC)c(Cl)cc2OC)no1 | > 55.7 µM (inactive) | – | – |
| COc1cc(OC)c(NC(=O)c2cc(CN3CCCC3)on2)cc1Cl | > 55.7 µM (inactive) | – | – |
| O=C(Nc1ccccc1Cl)c1cc(C2CC2)on1 | – | – | 5.52 |
| COc1cc(NC(=O)c2cc(C3CC3)on2)ccc1Br | inactive | – | – |
| COc1ccc(Cl)cc1NC(=O)c1cc(C2CC2)on1 | > 55.7 µM (inactive) | – | – |
| COc1cc(NC(=O)c2cc(C)on2)c(OC)cc1Cl | > 55.7 µM (inactive) | – | – |
| COc1ccc(OC)c(NC(=O)c2cc(CN3CCCC3)on2)c1 | > 55.7 µM (inactive) | – | – |
| COc1cccc(NC(=O)c2cc(C3CC3)on2)c1 | – | – | 5.28 |
| COc1cc(NC(=O)c2cc(C3CC3)on2)cc(OC)c1 | inactive | – | – |
| CN(C(=O)c1cc(C2CC2)on1)c1ccccc1 | > 55.7 µM (inactive) | – | – |
